Tests used:
[1] = target: T1, rat-species vanilloid receptor 1 (VR1/TRPV1) (Rattus norvegicus, UniProt O35433); test: Functional testing on vanilloid receptor 1 (VR1/TRPV1): FLIPR Ca2+ inflow assay in rat dorsal root ganglia cells (% activation / % inhibition vs capsaicin); type: cell-based; details: for inhibition at 10 µM: inhibition compared to 10 μM CP (capsaicin); for activation at 10 µM: stimulation compared to 10 μM CP (capsaicin); for IC50: capsaicin (CAP) stimulus, average
T1 construct: endogenous in cells; host or cells: primary cells dissociated from rat dorsal root ganglia (DRG)
Experimental: Preference may also be given to substituted spiro compounds according to the invention of general formula I which in a FLIPR assay in a concentration of 10 μM display inhibition of the Ca^2+ ion inflow in dorsal root ganglia of rats of at least 30%, preferably of at least 40%, particularly preferably of at least 50%, most particularly preferably of at least 70%, even more preferably of at least 90%, compared to the maximum achievable inhibition of the Ca^2+ ion inflow with capsaicin in a concentration of 10 μM.
In the FLIPR assay, the Ca^2+ inflow is quantified using a Ca^2+-sensitive dye (type Fluo-4, Molecular Probes Europe BV, Leiden, Netherlands) in a fluorescent imaging plate reader (FLIPR, Molecular Devices, Sunnyvale, USA), as described hereinafter.
I. Functional Testing Carried Out on the Vanilloid Receptor 1 (VR1/TRPV1 Receptor)
(§1) The agonistic or antagonistic effect of the substances to be tested can be determined on the rat-species vanilloid receptor 1 (VR1/TRPV1) using the following assay. According to this assay, the Ca^2+ inflow is quantified through the receptor channel using a Ca^2+-sensitive dye (type Fluo-4, Molecular Probes Europe BV, Leiden, Netherlands) in a fluorescent imaging plate reader (FLIPR, Molecular Devices, Sunnyvale, USA).
Complete medium: 50 mL HAMS F12 nutrient mixture (Gibco Invitrogen GmbH, Karlsruhe, Germany) with
10% by volume of FCS (foetal calf serum, Gibco Invitrogen GmbH, Karlsruhe, Germany, […]);
2 mM L-glutamine (Sigma, Munich, Germany);
1% by weight of AA solution (antibiotic/antimyotic solution, PAA, Pasching, Austria)
and 25 ng/ml NGF medium (2.5 S, Gibco Invitrogen GmbH, Karlsruhe, Germany)
Cell culture plate: Poly-D-lysine-coated, black 96 well plates having a clear base (96 well black/clear plate, BD Biosciences, Heidelberg, Germany) were additionally coated with laminin (Gibco Invitrogen GmbH, Karlsruhe, Germany), the laminin being diluted with PBS (Ca—Mg-free PBS, Gibco Invitrogen GmbH, Karlsruhe, Germany) to a concentration of 100 μg/mL. Aliquots having a laminin concentration of 100 μg/mL were removed and stored at −20° C. The aliquots were diluted with PBS in a ratio of 1:10 to 10 μg/mL laminin and in each case 50 μL of the solution were pipetted into a recess in the cell culture plate. The cell culture plates were incubated for at least two hours at 37° C., the excess solution was removed by suction-filtration and the recesses were each washed twice with PBS. The coated cell culture plates were stored with excess PBS which was not removed until just before the feeding of the cells.
Preparation of the Cells:
The vertebral column was removed from decapitated rats and placed immediately into cold HBSS buffer (Hank's buffered saline solution, Gibco Invitrogen GmbH, Karlsruhe, Germany), i.e. buffer located in an ice bath, mixed with 1% by volume (percent by volume) of an AA solution (antibiotic/antimyotic solution, PAA, Pasching, Austria). The vertebral column was cut longitudinally and removed together with fasciae from the vertebral canal. Subsequently, the dorsal root ganglia (DRG) were removed and again stored in cold HBSS buffer mixed with 1% by volume of an AA solution. The DRG, from which all blood remnants and spinal nerves had been removed, were transferred in each case to 500 μL of cold type 2 collagenase (PAA, Pasching, Austria) and incubated for 35 minutes at 37° C. After the addition of 2.5% by volume of trypsin (PAA, Pasching, Austria), incubation was continued for 10 minutes at 37° C. After complete incubation, the enzyme solution was carefully pipetted off and 500 μL of complete medium were added to each of the remaining DRG. The DRG were in each case suspended several times, drawn through cannulae No. 1, No. 12 and No. 16 using a syringe and transferred to a 50 mL Falcon tube which was filled up to 15 mL with complete medium. […]

vanilloid receptor (VR1) = target: T2, vanilloid receptor (VR1) (Homo sapiens, UniProt Q8NER1); test: Functional testing on vanilloid receptor (VR1): FLIPR Ca2+ inflow assay in CHO K1 cells stably transfected with the VR1 gene; type: cell-based; details: for inhibition at 10 µM: CHO-K1, inhibition compared to 10 μM CP (capsaicin); for activation at 10 µM: CHO-K1, stimulation compared to 10 μM CP (capsaicin)
T2 construct: expressed in transfected cells; host or cells: CHO K1 cells (ECACC), stably transfected
Text: II. Functional Testing Carried Out on the Vanilloid Receptor (VR1)
as §1, with “can also” for “can”, “the” for “the rat-species”, “(VR1)” for “1 (VR1/TRPV1)”, “the” for “the receptor”
Chinese hamster ovary cells (CHO K1 cells, European Collection of Cell Cultures (ECACC) United Kingdom) were stably transfected with the VR1 gene. For functional testing, these cells were plated out on poly-D-lysine-coated black 96 well plates having a clear base (BD Biosciences, Heidelberg, Germany) at a density of 25,000 cells/well. The cells were incubated overnight at 37° C. and 5% CO2 in a culture medium (Ham's F12 nutrient mixture, 10% by volume of FCS (foetal calf serum), 18 μg/ml L-proline). The next day the cells were incubated with Fluo-4 (Fluo-4 2 μM, 0.01% by volume of Pluronic F127, Molecular Probes in HBSS (Hank's buffered saline solution), Gibco Invitrogen GmbH, Karlsruhe, Germany) for 30 minutes at 37° C. Subsequently, the plates were washed 3 times with HBSS buffer and after further incubation for 15 minutes at room temperature used for Ca^2+ measurement in a FLIPR assay. The Ca^2+-dependent fluorescence was measured before and after the addition of the substances to be tested (λex wavelength=488 nm, λem=540 nm). Quantification was carried out by measuring the highest fluorescence intensity (FC, Fluorescence Counts) over time.
The FLIPR protocol consists of 2 substance additions. First the compounds to be tested (10 μM) were pipetted onto the cells and the Ca^2+ inflow was compared with the control (capsaicin 10 μM) (% activation based on the Ca^2+ signal after the addition of 10 μM capsaicin). After 5 minutes' incubation, 100 nM of capsaicin were administered and the Ca^2+ inflow was also determined.
Desensitising agonists and antagonists led to suppression of the Ca^2+ inflow. The % inhibition was calculated compared to the maximum achievable inhibition with 10 μM of capsaicin.

T2 sequence (Q8NER1 whole entry): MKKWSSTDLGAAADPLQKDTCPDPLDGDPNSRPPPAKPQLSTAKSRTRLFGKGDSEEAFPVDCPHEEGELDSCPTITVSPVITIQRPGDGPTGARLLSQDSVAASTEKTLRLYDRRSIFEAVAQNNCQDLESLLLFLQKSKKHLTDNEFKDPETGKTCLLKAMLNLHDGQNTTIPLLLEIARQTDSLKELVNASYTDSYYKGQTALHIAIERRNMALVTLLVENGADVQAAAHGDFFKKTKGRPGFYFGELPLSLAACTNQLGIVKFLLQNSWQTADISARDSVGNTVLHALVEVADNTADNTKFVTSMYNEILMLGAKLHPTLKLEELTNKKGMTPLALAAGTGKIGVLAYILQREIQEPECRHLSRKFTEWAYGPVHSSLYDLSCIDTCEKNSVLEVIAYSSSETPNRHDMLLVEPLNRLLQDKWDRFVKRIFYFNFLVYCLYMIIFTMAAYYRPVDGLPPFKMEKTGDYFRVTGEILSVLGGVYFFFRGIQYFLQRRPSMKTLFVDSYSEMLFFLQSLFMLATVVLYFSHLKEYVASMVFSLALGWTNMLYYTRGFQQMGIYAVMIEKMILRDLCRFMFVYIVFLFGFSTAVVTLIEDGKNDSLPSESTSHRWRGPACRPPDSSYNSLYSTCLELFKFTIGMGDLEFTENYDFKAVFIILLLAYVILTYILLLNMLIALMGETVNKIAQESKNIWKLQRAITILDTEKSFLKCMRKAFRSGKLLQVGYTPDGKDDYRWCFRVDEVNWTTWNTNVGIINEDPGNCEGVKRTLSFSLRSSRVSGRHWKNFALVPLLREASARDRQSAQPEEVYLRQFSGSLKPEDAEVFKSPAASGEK
T1 sequence (O35433 whole entry): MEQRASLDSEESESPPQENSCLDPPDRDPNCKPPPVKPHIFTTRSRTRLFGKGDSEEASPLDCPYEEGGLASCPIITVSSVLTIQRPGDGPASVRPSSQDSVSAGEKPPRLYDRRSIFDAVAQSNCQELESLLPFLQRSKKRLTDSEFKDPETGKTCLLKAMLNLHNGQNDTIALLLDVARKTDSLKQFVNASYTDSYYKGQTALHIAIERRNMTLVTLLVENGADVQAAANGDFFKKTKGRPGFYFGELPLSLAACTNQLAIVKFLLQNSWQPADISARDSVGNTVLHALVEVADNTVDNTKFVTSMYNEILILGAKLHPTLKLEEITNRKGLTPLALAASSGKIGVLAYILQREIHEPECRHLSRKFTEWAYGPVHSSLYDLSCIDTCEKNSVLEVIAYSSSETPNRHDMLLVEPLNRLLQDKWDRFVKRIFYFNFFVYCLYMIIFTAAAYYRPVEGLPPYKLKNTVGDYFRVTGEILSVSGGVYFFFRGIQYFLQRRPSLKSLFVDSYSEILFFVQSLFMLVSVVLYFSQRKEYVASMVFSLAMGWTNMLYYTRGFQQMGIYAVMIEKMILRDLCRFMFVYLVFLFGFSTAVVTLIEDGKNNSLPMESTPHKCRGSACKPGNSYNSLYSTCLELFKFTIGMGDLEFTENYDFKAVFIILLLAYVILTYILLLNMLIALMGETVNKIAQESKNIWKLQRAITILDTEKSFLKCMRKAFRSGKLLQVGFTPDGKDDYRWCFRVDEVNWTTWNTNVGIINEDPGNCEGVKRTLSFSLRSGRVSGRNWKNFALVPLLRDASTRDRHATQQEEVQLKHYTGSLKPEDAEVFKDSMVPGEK

| inhibition at 10 µM [1] | activation at 10 µM [1] | inhibition at 10 µM (vanilloid receptor (VR1)) | activation at 10 µM (vanilloid receptor (VR1)) | IC50 [1] | IC50 (vanilloid receptor (VR1); capsaicin (CAP) stimulus, average) | Structure (SMILES) |
| --- | --- | --- | --- | --- | --- | --- |
| 56.2% | -0.43% | 1.69% | 1.92% | – | – | CCc1ccc(NC(=O)N2CCC3(CC2)CC(c2ccc(C(C)(C)C)cc2)=NO3)cc1 [Compound 165, 3-(4-tert-butylphenyl)-1-oxa-2,8-diazaspiro[4.5]dec-2-ene-8-carboxylic acid-(4-ethylphenyl)amide] |
| 98.5% | 0.42% | 20.4% | -0.3% | 78 nM | – | CC(C)(C)c1ccc(NC(=O)N2CCC3(CC2)CC(c2ccccc2)=NO3)cc1 [Compound 141, 3-phenyl-1-oxa-2,8-diazaspiro[4.5]dec-2-ene-8-carboxylic acid-(4-tert-butylphenyl)amide] |
| 94% | 0% | 74% | -1% | – | – | O=C(/C=C/c1ccc(C(F)(F)F)nc1N1CCCCC1)N1CCC2(CC1)CC(c1cccc(F)c1)=NO2 [Compound 365, (E)-1-(3-(3-fluorophenyl)-1-oxa-2,8-diazaspiro[4.5]dec-2-en-8-yl)-3-(2-(piperidin-1-yl)-6-(trifluoromethyl)pyridin-3-yl)prop-2-en-1-one] |
| 95.4% | 3.81% | 5.49% | 0.1% | – | – | COc1cccc(C2=NOC3(CCN(C(=O)Nc4ccc(C(C)C)cc4)CC3)C2)c1 [Compound 77, 3-(3-methoxyphenyl)-1-oxa-2,8-diazaspiro[4.5]dec-2-ene-8-carboxylic acid-(4-isopropylphenyl)amide] |
| 84.3% | -0.43% | -3.15% | 0.12% | – | – | CCc1ccc(NC(=O)N2CCC3(CC2)CC(c2ccccc2)=NO3)cc1 [Compound 163, 3-phenyl-1-oxa-2,8-diazaspiro[4.5]dec-2-ene-8-carboxylic acid-(4-ethylphenyl)amide] |
| 110% | 0% | 19% | -1% | 175 nM | 1070 nM | CC1CN(C(=O)Nc2ccc(C(C)(C)C)cc2)CCC12CC(c1ccccc1)=NO2 (stereo not shown) [Compound 369, N-(4-tert-butylphenyl)-6-methyl-3-phenyl-1-oxa-2,8-diazaspiro[4.5]dec-2-ene-8-carboxamide] |

Second part, the compound before the results:

| Structure (SMILES) | inhibition at 10 µM [1] | activation at 10 µM [1] | inhibition at 10 µM (vanilloid receptor (VR1)) | activation at 10 µM (vanilloid receptor (VR1)) | IC50 [1] | IC50 (vanilloid receptor (VR1); capsaicin (CAP) stimulus, average) |
| --- | --- | --- | --- | --- | --- | --- |
| COc1ccc(NC(=O)N2CCC3(CC2)CC(c2cccc(OC)c2)=NO3)cc1 [Compound 47, 3-(3-methoxyphenyl)-1-oxa-2,8-diazaspiro[4.5]dec-2-ene-8-carboxylic acid-(4-methoxyphenyl)amide] | 48.3% | 0.92% | 11.4% | 0.01% | – | – |
| COc1cccc(C2=NOC3(CCN(C(=O)Nc4ccc(OC(F)(F)F)cc4)CC3)C2)c1 [Compound 244, 3-(3-methoxyphenyl)-1-oxa-2,8-diazaspiro[4.5]dec-2-ene-8-carboxylic acid-(4-trifluoromethoxyphenyl)amide] | 89.1% | 9.79% | 3.09% | -0.28% | – | – |
| CC(C)(C)c1ccc(NC(=O)N2CCC3(CC2)CC(c2ccc(Cl)cc2)=NO3)cc1 [Compound 142, 3-(4-chlorophenyl)-1-oxa-2,8-diazaspiro[4.5]dec-2-ene-8-carboxylic acid-(4-tert-butylphenyl)amide] | 63% | -0.2% | -18.8% | -0.07% | – | – |
| O=C(Nc1ccc(I)cc1)N1CCC2(CC1)CC(c1ccccc1)=NO2 [Compound 44, 3-phenyl-1-oxa-2,8-diazaspiro[4.5]dec-2-ene-8-carboxylic acid-(4-iodophenyl)amide] | 85.6% | -0.73% | -4.4% | -0.15% | – | – |
| CC1CN(C(=O)Nc2ccc(C(F)(F)F)cc2)CCC12CC(c1ccccc1)=NO2 (stereo not shown) [Compound 385, 6-methyl-3-phenyl-N-(4-(trifluoromethyl)phenyl)-1-oxa-2,8-diazaspiro[4.5]dec-2-ene-8-carboxamide] | 77% | 1% | 18% | -2% | 59.8 nM | – |
| CC(C(=O)N1CCC2(CC1)CC(c1cccc(F)c1)=NO2)c1ccc(NS(C)(=O)=O)c(F)c1 (stereo not shown) [Compound 366, N-(2-fluoro-4-(1-(3-(3-fluorophenyl)-1-oxa-2,8-diazaspiro[4.5]dec-2-en-8-yl)-1-oxopropan-2-yl)phenyl)methanesulphonamide] | 29% | 0% | -20% | -1% | – | – |
| CC(C)(C)c1ccc(NC(=O)N2CCC3(CC2)CC(c2ncccc2Cl)=NO3)cc1 [Compound 329, 3-(3-chloropyridin-2-yl)-1-oxa-2,8-diazaspiro[4.5]dec-2-ene-8-carboxylic acid-(4-tert-butylphenyl)amide] | 96% | 71% | 37% | 38% | – | – |
| O=C(/C=C/c1ccc(C(F)(F)F)nc1N1CCCCC1)N1CCC2(CC1)CC(c1cccc(Cl)c1)=NO2 [Compound 356, (E)-1-(3-(3-chlorophenyl)-1-oxa-2,8-diazaspiro[4.5]dec-2-en-8-yl)-3-(2-(piperidin-1-yl)-6-(trifluoromethyl)pyridin-3-yl)prop-2-en-1-one] | 88% | 0% | 52% | 0% | – | – |
| CC(C)c1ccc(NC(=O)N2CCC3(CC2)CC(c2ccc(Cl)cc2)=NO3)cc1 [Compound 79, 3-(4-chlorophenyl)-1-oxa-2,8-diazaspiro[4.5]dec-2-ene-8-carboxylic acid-(4-isopropylphenyl)amide] | 46.5% | 0.38% | -17.6% | -0.35% | – | – |
